From PubChem BioAssay (NCI)
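Briefly, cells in 96-well plates were exposed to five compound concentrations for 48 h, and endpoints were estimated by linear interpolation. At the TGI there is no net growth.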

Tests used:
Experiment in all cases: NCI tumour cell line growth inhibition, 48 h
OVCAR-8 ovarian = test system: OVCAR-8 ovarian
A549 NSCLC = test system: A549 NSCLC
MOLT-4 leukemia = test system: MOLT-4 leukemia
HOP-62 NSCLC = test system: HOP-62 NSCLC
LOX IMVI melanoma = test system: LOX IMVI melanoma
K-562 leukemia = test system: K-562 leukemia
SNB-75 CNS = test system: SNB-75 CNS
RPMI-8226 leukemia = test system: RPMI-8226 leukemia
NCI-H460 lung = test system: NCI-H460 lung
HT29 colon = test system: HT29 colon
SN12C renal = test system: SN12C renal
UACC-257 melanoma = test system: UACC-257 melanoma
SNB-19 CNS = test system: SNB-19 CNS
SF-268 CNS = test system: SF-268 CNS
T-47D breast = test system: T-47D breast
MDA-MB-231 breast = test system: MDA-MB-231 breast
SR leukemia = test system: SR leukemia
OVCAR-5 ovarian = test system: OVCAR-5 ovarian
EKVX NSCLC = test system: EKVX NSCLC
PC-3 prostate = test system: PC-3 prostate
HCT-116 colon = test system: HCT-116 colon
HL-60(TB) leukemia = test system: HL-60(TB) leukemia
SF-295 CNS = test system: SF-295 CNS
786-0 renal = test system: 786-0 renal
MDA-MB-435 = test system: MDA-MB-435
OVCAR-4 ovarian = test system: OVCAR-4 ovarian
SK-MEL-28 melanoma = test system: SK-MEL-28 melanoma
HCC-2998 colon = test system: HCC-2998 colon
ACHN renal = test system: ACHN renal
NCI-H226 lung = test system: NCI-H226 lung
M14 melanoma = test system: M14 melanoma
UO-31 renal = test system: UO-31 renal
BT-549 breast = test system: BT-549 breast
A498 renal = test system: A498 renal
SK-MEL-2 melanoma = test system: SK-MEL-2 melanoma
MCF7 breast = test system: MCF7 breast
COLO 205 colon = test system: COLO 205 colon
MALME-3M melanoma = test system: MALME-3M melanoma
KM12 colon = test system: KM12 colon
MDA-N = test system: MDA-N
TK-10 renal = test system: TK-10 renal
OVCAR-3 ovarian = test system: OVCAR-3 ovarian
SF-539 CNS = test system: SF-539 CNS
HCT-15 colon = test system: HCT-15 colon
NCI-H522 lung = test system: NCI-H522 lung
CCRF-CEM leukemia = test system: CCRF-CEM leukemia
NCI-H23 lung = test system: NCI-H23 lung
NCI/ADR-RES ovarian = test system: NCI/ADR-RES ovarian
HS 578T breast = test system: HS 578T breast
U251 CNS = test system: U251 CNS
DU-145 prostate = test system: DU-145 prostate
SW-620 colon = test system: SW-620 colon
HOP-92 NSCLC = test system: HOP-92 NSCLC
RXF 393 renal = test system: RXF 393 renal
UACC-62 melanoma = test system: UACC-62 melanoma
SK-OV-3 ovarian = test system: SK-OV-3 ovarian
SK-MEL-5 melanoma = test system: SK-MEL-5 melanoma
CAKI-1 renal = test system: CAKI-1 renal
IGROV1 ovarian = test system: IGROV1 ovarian

Measured: TGI

Cc1nc(N)c(N2CCN([N+](=O)[O-])CC2)c(=O)[nH]1
> 100 µM: OVCAR-8 ovarian | A549 NSCLC | MOLT-4 leukemia | HOP-62 NSCLC | LOX IMVI melanoma | K-562 leukemia | SNB-75 CNS | RPMI-8226 leukemia | NCI-H460 lung | HT29 colon | SN12C renal | UACC-257 melanoma | SNB-19 CNS | SF-268 CNS | T-47D breast | MDA-MB-231 breast | SR leukemia | OVCAR-5 ovarian | EKVX NSCLC | PC-3 prostate | HCT-116 colon | HL-60(TB) leukemia | SF-295 CNS | 786-0 renal | MDA-MB-435 | OVCAR-4 ovarian | SK-MEL-28 melanoma | HCC-2998 colon | ACHN renal | NCI-H226 lung | M14 melanoma | UO-31 renal | BT-549 breast | A498 renal | SK-MEL-2 melanoma | MCF7 breast | COLO 205 colon | MALME-3M melanoma | KM12 colon | MDA-N | TK-10 renal | OVCAR-3 ovarian | SF-539 CNS | HCT-15 colon | NCI-H522 lung | CCRF-CEM leukemia | NCI-H23 lung | NCI/ADR-RES ovarian | HS 578T breast | U251 CNS | DU-145 prostate | SW-620 colon

N#CC12C(=O)N=C(N)C1(C#N)C(c1ccco1)NC1=C2CCCC1 (configuration not stated)
> 100 µM: OVCAR-8 ovarian | A549 NSCLC | HOP-92 NSCLC | MOLT-4 leukemia | HOP-62 NSCLC | LOX IMVI melanoma | RPMI-8226 leukemia | RXF 393 renal | NCI-H460 lung | HT29 colon | SN12C renal | UACC-257 melanoma | SNB-19 CNS | SF-268 CNS | T-47D breast | MDA-MB-231 breast | SR leukemia | OVCAR-5 ovarian | EKVX NSCLC | UACC-62 melanoma | SK-OV-3 ovarian | PC-3 prostate | HCT-116 colon | HL-60(TB) leukemia | SF-295 CNS | SK-MEL-5 melanoma | 786-0 renal | MDA-MB-435 | OVCAR-4 ovarian | SK-MEL-28 melanoma | CAKI-1 renal | HCC-2998 colon | ACHN renal | NCI-H226 lung | M14 melanoma | UO-31 renal | IGROV1 ovarian | BT-549 breast | A498 renal | SK-MEL-2 melanoma | MCF7 breast | COLO 205 colon | MALME-3M melanoma | KM12 colon | MDA-N | TK-10 renal | HCT-15 colon | NCI-H522 lung | CCRF-CEM leukemia | NCI-H23 lung | NCI/ADR-RES ovarian | HS 578T breast | U251 CNS | DU-145 prostate | SW-620 colon
